Experimental data published in patent publication US6448431B1, “Production of aryl carboxylate esters” (priority 1999, dated 2002).

Columns and labels:
[1] = Solubility of NOBS in selected solvents; assay type: physicochemical; details: 23° C., grams of NOBS soluble in 100 grams of solution
Text: The solvent properties of TFA are unique and highly advantageous in the synthesis of phenolsulfonate esters. […] It is notable that the only solvent in which NOBS is more soluble than water is TFA. I have found no better solvent for NOBS than TFA. This is surprising. […] It is likely that hydrogen bonding in TFA facilitates the solvation of sulfonate anions but it is notable, in contrast, that such effects are much weaker in acetic acid. Furthermore, while it is known in the art that dimethyl sulfoxide (DMSO) and dimethylformamide (DMF) are relatively good solvents for benzenesulfonate esters they are much weaker solvents than TFA and because TFA has a much lower boiling point than these dipolar aprotic solvents it is the only good solvent for benzenesulfonate esters which can be readily stripped from product solutions and then purified and recycled with relative ease.

[2] = cited from earlier work

Row | Solubility of NOBS, wt % NOBS ([1]; solvent DMF) | Solubility of NOBS, wt % NOBS ([1]; solvent DMSO) | Solubility of NOBS, wt % NOBS ([1]; solvent NMP) | Solubility of NOBS, wt % NOBS ([1]; solvent TFA) | Solubility of NOBS, wt % NOBS ([1]; solvent acetic acid) | Solubility of NOBS, wt % NOBS ([1]; solvent acetone) | Solubility of NOBS, wt % NOBS ([1]; solvent acetonitrile) | Solubility of NOBS, wt % NOBS ([1]; solvent nonanoic acid) | Solubility of NOBS, wt % NOBS ([1]; solvent water) | SMILES | Aqueous pKa [2]
1 | 10.1 wt % | 15.9 wt % | 8.4 wt % | 23.4 wt % | 1.7 wt % | 0.02 wt % | 0.01 wt % | 0.03 wt % | 22.8 wt % | CCCCCCCCC(=O)Oc1ccc(S(=O)(=O)[O-])cc1.[Na+] [NOBS, sodium 4-(nonanoyloxy)benzenesulfonate] | –
2 | – | – | – | – | – | – | – | – | – | O=C(O)C(F)(F)F [CF3CO2H, trifluoroacetic acid] | 0.22
